“Also recorded” adds a separate entry of the source. Structures can show the parent of a compound that is named as a salt. Where two headings read alike, the source gives them in different places.
How the values were obtained:
[1] = test system: mutant IDH1; details: cited from earlier work
[2] = target: T1, WT IDH1 (Homo sapiens, UniProt O75874); assay: In vitro enzyme inhibition assay, WT IDH1 (NADPH production); type: biochemical; details: for IC50 / IC50 for enzyme activities, WT: n.p = no clear inhibitory detected; for IC50: read-out: IC50 for enzyme activities, WT
T1 construct: made in house
T1 sequence (O75874 whole entry): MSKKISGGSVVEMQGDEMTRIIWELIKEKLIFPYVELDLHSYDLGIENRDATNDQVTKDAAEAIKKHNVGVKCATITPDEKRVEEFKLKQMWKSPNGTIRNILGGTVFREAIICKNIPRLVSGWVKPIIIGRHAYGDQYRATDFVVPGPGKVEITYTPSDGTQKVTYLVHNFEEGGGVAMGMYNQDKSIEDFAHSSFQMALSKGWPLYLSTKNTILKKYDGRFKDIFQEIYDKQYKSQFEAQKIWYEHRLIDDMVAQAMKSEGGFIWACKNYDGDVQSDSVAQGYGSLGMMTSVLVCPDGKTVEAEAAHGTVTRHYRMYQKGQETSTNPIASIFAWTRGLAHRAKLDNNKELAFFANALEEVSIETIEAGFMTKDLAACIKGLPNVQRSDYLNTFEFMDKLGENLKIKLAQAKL
Procedure: For inhibition assay, firstly, triplicate samples of compounds were incubated with the protein for 5 min.

[3] = test system: mutant IDH1 (D-2HG production); assay: D-2HG concentrations in tumors and serum of HT1080 xenograft mice; type: in vivo, CB-17/Icr-scid mice; details: for percentage inhibition of D-2HG production in tumor tissue: normalized to control group; for R-2HG level in serum: model 5.97 ±2.58; for R-2HG level in tumor tissue: model 364.01 ±118.43
[4] = test system: H3K9me3 in HT1080 cells; assay: Immunocytochemical staining of H3K9me3; type: cell-based, human
Procedure: We seeded the cells at 2×10^5 per well (Lab-Tek II chamber slide, Nalgen Nunc International, Naperville, IL). 48 hours after incubation, cells were fixed with PBS (−) containing 4% paraformaldehyde for 15 minutes, and rendered permeable with PBS (−) containing 0.1% Triton X-100 at 4 °C for 2.5 minutes. Subsequently, the cells were covered with 3% bovine serum albumin in PBS (−) at 4 °C for 12 hours to block nonspecific hybridization followed by incubation with an H3K9me3 antibody diluted at 1:100. After washing with PBS (−), the cells were stained by an Alexa 594-conjugated anti-mouse secondary antibody (Molecular Probes, Eugene, OR) diluted at 1: 1,000. Nuclei were counterstained with (DAPI). Fluorescent images were obtained under a TCS SP2 AOBS microscope (Leica, Tokyo, Japan).

[5] = test system: H3K9me3 in HT1080 cells; assay: Histone methylation H3K9me3 by western blot; type: cell-based, human; details: 48 hours
Procedure: The harvested cells were lysed with lysis buffer (50 mM Tris-HCl (pH 7.4), 150 mM NaCl, 1 mM EDTA, 1 mM EGTA, 10 mg/mL aprotinin, 10 mg/mL leupeptin, 5 mM phenylmethanesulfonyluoride (PMSF), 1 mM dithiolthreitol (DTT) containing 1% Triton X-100). Insoluble debris was removed by centrifugation at 13000 rpm for 20 minutes, and the content of protein was determined using Bradford reagent (Bio-Rad, USA). Lysate protein (20-40 μg) was subjected to 12% SDS-PAGE and electrophoretically transferred to polyvinylidene difluoride membranes (PVDF) (Millipore, USA). The membranes were blocked with 5% non-fat milk for 1 h and then incubated with the respective specific primary antibody at 4 °C overnight. Protein bands were visualized using an enhanced chemiluminescence reagent (ECL Plus) (GE Healthcare, USA) after hybridization with a HRP conjugated secondary antibody. Band density was quantified using the Image J software program (NIH).

[6] = test system: HT1080 xenograft; assay: Antitumor efficacy in HT1080 xenograft mouse model; type: in vivo, CB-17/Icr-scid mice; details: for Tumor weight: after 2 weeks' treatment, control 2.32 ± 0.93 g; for Tumor volume: model 1879.61±244.35
Description: In the xenograft model, HT1080 cells were inoculated subcutaneously into the right flank of male CB-17/Icr-scid mice.

[7] = test system: H3K9me3 in HT1080 tumor tissue; assay: Immunohistochemistry for H3K9me3 in xenograft tumor tissues; type: in vivo, CB-17/Icr-scid mice; details: clomifene treated groups (50, 100 mg/kg) vs vehicle
Procedure: We then examined D-2HG concentrations in tumors and serum.
HT1080 cells were inoculated subcutaneously (2 × 10^6 cells) into the right flank of each mouse in the three groups. Treatment was started after seven days of cells injection. […] For the vehicle group, 200 μL normal saline was administered to each mouse every day by i.g. The duration of the animal study was 22 days for HT1080 cells. The tumor volume was calculated from measurements of 3 diameters of the individual tumor based on the following formula: tumor volume (mm^3) = (length × width × height × 0.52). The mice were monitored until tumors reached 1 cm^3 total volume, at which time the mice were euthanized and the tumors were extracted. The tumors were dissected and sent for immunohistochemical analysis and western blot analysis.

[8] = test system: HT1080 cells; assay: Flow cytometric analysis for apoptosis (Annexin V/PI); type: cell-based, human; details: control 2%
Procedure: Then the cells were harvested, washed twice with ice-cold PBS, and mixed in 100 μL of 1 × binding buffer (10 mM HEPES/NaOH, pH 7.4, 140 mM NaCl, 2.5 mM CaCl2). After culturing for 15 min at room temperature in Annexin-V/PI (Nanjing KeyGen Biotech. Inc.) double staining liquid, the cells were examined by flow cytometry (BD Biosciences, FACSCalibur).

[9] = 50 and 100 mg/kg per day via gavage
Procedure: After 2 weeks’ treatment, all mice were then scarified and the average tumor weights were calculated.
CB-17/Icr-scid mice (male, 4 weeks old) were purchased from HFK Bioscience CO., LTD (Beijing, China). The animals were maintained under ‘specific pathogen-free’ conditions according to the guidelines established by Research Animal Resources, Laboratory Animal Center, Huazhong University of Science and Technology (Wuhan, China). […] HT1080 cells were inoculated subcutaneously (2 × 10^6 cells) into the right flank of each mouse in the three groups. Treatment was started after seven days of cells injection. […] For the vehicle group, 200 μL normal saline was administered to each mouse every day by i.g. The duration of the animal study was 22 days for HT1080 cells. The tumor volume was calculated from measurements of 3 diameters of the individual tumor based on the following formula: tumor volume (mm^3) = (length × width × height × 0.52). The mice were monitored until tumors reached 1 cm^3 total volume, at which time the mice were euthanized and the tumors were extracted.

Compound: CC(C)(C)CC(C)(C)c1cc(Cn2ccnc2)c(O)c(Cn2ccnc2)c1 [2,6-bis (1H-imidazol-1-ylmethyl)-4-(2,4,4-trimethylpentan-2-yl) phenol]
- manner of inhibition of mutant IDH1 ([1]; ligand of crystal structure 4UMX, binds allosteric site): non-competitive and allosteric inhibitor

Compound: Cc1ccccc1C(C(=O)NC1CCCCC1)N(C(=O)Cn1ccnc1C)c1cccc(F)c1 (centres unmarked) [AGI-5198]
- kinetic mechanism with respect to NADPH ([1]; mutant IDH1): uncompetitive
- kinetic mechanism with respect to α-KG ([1]; mutant IDH1): competitive inhibitor
- IC50 [2]: > 200 µM

Compound: COc1ccc(-c2ccc3cc(C(=O)O)ccc3c2)cc1C12CC3CC(CC(C3)C1)C2 [Adapalene]
- IC50 for enzyme activities, WT [2]: n.p

Compound: CO[C@@]1(NC(=O)Cc2cccs2)C(=O)N2C(C(=O)O)=C(COC(N)=O)CS[C@@H]21 [Cefoxitin sodium]
- IC50 [2]: > 200 µM

Compound: CCN(CC)CCOc1ccc(C(=C(Cl)c2ccccc2)c2ccccc2)cc1 [Clomifene]
- percentage inhibition of R-2HG in serum ([3]; 50 mg/kg): 51.59%
- percentage inhibition of D-2HG production in tumor tissue ([3]; 50 mg/kg): 23.81%
- R-2HG level in serum ([3]; 50 mg/kg): 2.89 ± 1.06 µM
- R-2HG level in tumor tissue ([3]; 50 mg/kg): 277.34 ± 78.03 µg/g
- percentage inhibition of D-2HG production in tumor tissue ([3]; 100 mg/kg): 57.38%
- R-2HG level in serum ([3]; 100 mg/kg): 1.47 ± 1.38 µM
- R-2HG level in tumor tissue ([3]; 100 mg/kg): 155.12 ± 74.34 µg/g
- mutant IDH1-mediated H3K9me3 [4]: substantially and dose-dependently decreased
- level of histone methylation (H3K9me3) [5]: significantly reduced; also recorded: markedly decrease
- percentage inhibition of tumor volume ([6]; 50 mg/kg per day via gavage): 51.71%
- percentage inhibition of tumor weight ([6]; 50 mg/kg per day via gavage): 38.36%
- Tumor weight ([6]; 50 mg/kg per day via gavage): 1.43 ± 0.42 g
- percentage inhibition of tumor weight ([6]; 50 mg/kg per day via gavage, listed as clomifene): about 60%
- Tumor volume ([6]; 50 mg/kg per day via gavage): 907.73±176.63 mm3
- percentage inhibition of tumor volume ([6]; 100 mg/kg per day via gavage): 65.80%
- percentage inhibition of tumor weight ([6]; 100 mg/kg per day via gavage): 59.48%
- Tumor weight ([6]; 100 mg/kg per day via gavage): 0.94 ± 0.61 g
- Tumor volume ([6]; 100 mg/kg per day via gavage): 642.91±127.02 mm3
- tumor growth of HT1080-bearing mice ([6]; oral 100 mg/kg and 50 mg/kg per day): significantly suppressed
- expressions of H3K9me3 in tumor tissues [7]: substantially reduced
- apoptotic death ([8]; 10 μM): 12.88%
- apoptotic death ([8]; 20 μM): 23.61%
- Effect on WT IDH1 ([2]; at 200 μM): did not obviously alter
- IC50 [2]: > 200 µM
- effect on mouse body weight [9]: no effect
- effect on mouse body weight ([9]; listed as clomifene): no obvious side effects on animals’ growth

Compound: CN(C)[C@@H]1C(O)=C(C(N)=O)C(=O)[C@@]2(O)C(O)=C3C(=O)c4c(O)ccc(Cl)c4[C@@H](O)[C@H]3C[C@@H]12 [Demeclocycline]
- IC50 for enzyme activities, WT [2]: n.p^e

Compound: OC(Cn1cncn1)(Cn1cncn1)c1ccc(F)cc1F [Fluconazole]
- IC50 for enzyme activities, WT [2]: n.p

Compound: C=C1c2cccc(O)c2C(=O)C2=C(O)[C@]3(O)C(=O)C(C(N)=O)=C(O)[C@@H](N(C)C)[C@@H]3[C@@H](O)[C@H]12 [Metacycline]
- IC50 for enzyme activities, WT [2]: n.p

Compound: CCCNCC(O)COc1ccccc1C(=O)CCc1ccccc1 (centres unmarked) [Propafenone Hydrochloride]
- IC50 for enzyme activities, WT [2]: n.p

Compound: O=C(NC[C@H]1CN(c2ccc(N3CCOCC3=O)cc2)C(=O)O1)c1ccc(Cl)s1 [Rivaroxaban]
- IC50 [2]: > 200 µM

Compound: CN(C)c1cc(NC(=O)CNC(C)(C)C)c(O)c2c1C[C@H]1C[C@H]3[C@H](N(C)C)C(O)=C(C(N)=O)C(=O)[C@@]3(O)C(O)=C1C2=O [Tigecycline]
- IC50 for enzyme activities, WT [2]: n.p

Reference: PMC5546478 (Oncotarget, 2017)
